Assay results published in ChEMBL document CHEMBL4627363, “S1P1-selective agonist prodrug IMMH002 is phosphorylated in rats to form an S-configured enantiomer: Synthesis, verification, and biological activity of the in vivo active metabolite” (Bioorg Med Chem Lett, 2020).

How the values were obtained:
[1] = target: Sphingosine 1-phosphate receptor 1 (Homo sapiens, UniProt P21453); assay: Agonist activity at S1P1 (unknown origin) by HTRF assay
Homo sapiens = species: Homo sapiens; assay: Ratio of EC50 for S1PR3 (unknown origin) to EC50 for S1PR1 (unknown origin)
[2] = target: Sphingosine 1-phosphate receptor 3 (Homo sapiens, UniProt Q99500); assay: Agonist activity at S1PR3 (unknown origin) by HTRF assay
Chain of Sphingosine 1-phosphate receptor 3 (Q99500 whole entry): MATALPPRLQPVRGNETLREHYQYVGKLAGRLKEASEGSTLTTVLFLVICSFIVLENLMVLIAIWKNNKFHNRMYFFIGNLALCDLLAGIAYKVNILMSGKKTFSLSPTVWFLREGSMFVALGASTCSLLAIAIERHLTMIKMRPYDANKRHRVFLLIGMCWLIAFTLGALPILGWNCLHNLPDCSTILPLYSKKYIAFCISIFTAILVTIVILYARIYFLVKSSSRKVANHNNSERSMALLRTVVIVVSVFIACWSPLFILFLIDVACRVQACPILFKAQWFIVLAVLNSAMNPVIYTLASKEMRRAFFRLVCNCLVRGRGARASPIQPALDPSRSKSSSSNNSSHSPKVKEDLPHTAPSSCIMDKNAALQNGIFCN

Chain of Sphingosine 1-phosphate receptor 1 (P21453 whole entry): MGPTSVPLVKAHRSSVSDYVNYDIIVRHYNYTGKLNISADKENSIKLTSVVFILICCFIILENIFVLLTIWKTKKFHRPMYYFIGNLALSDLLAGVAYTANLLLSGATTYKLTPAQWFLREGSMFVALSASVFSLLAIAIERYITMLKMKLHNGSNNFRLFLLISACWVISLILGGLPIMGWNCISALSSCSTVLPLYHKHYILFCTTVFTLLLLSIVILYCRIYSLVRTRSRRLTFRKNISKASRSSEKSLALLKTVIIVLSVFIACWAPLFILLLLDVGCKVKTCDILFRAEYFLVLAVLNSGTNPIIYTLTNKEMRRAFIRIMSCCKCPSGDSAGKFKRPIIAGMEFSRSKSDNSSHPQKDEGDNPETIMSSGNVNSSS

CCc1nc(-c2ccc(-c3ccc(CC[C@@](N)(CO)COP(=O)(O)O)cc3)cc2)co1
EC50 [1]: 469 nM | Ratio EC50 (Homo sapiens): 1.6 | EC50 [2]: 736 nM

CCc1nc(-c2ccc(-c3ccc(CCC(N)(CO)CO)cc3)cc2)co1
EC50 [1]: 332 nM | EC50 [2]: > 10000 nM

CCc1nc(-c2ccc(-c3ccc(CC[C@](N)(CO)COP(=O)(O)O)cc3)cc2)co1
EC50 [1]: 2.2 nM | Ratio EC50 (Homo sapiens): 173 | EC50 [2]: 380 nM

CCc1nc(-c2ccc(-c3ccc(CCC(N)(CO)COP(=O)(O)O)cc3)cc2)co1 (racemic)
EC50 [1]: 5 nM | Ratio EC50 (Homo sapiens): 105 | EC50 [2]: 523 nM
